The values below come from ChEMBL document CHEMBL3997776, “Oxime Ethers of (E)-11-Isonitrosostrychnine as Highly Potent Glycine Receptor Antagonists” (J Nat Prod, 2016).

Substitutions are numbered along the chain they refer to.

The target of assay [1] is T1, Glycine receptor (alpha-1/beta) (Homo sapiens, UniProt P23415+P48167). Description: Antagonist activity at recombinant human glycine receptor alpha 1 beta expressed in human tsA201 cells assessed as inhibition of glycine-induced receptor activation after 30 mins by FLIPR membrane potential blue assay. Type of assay: cell-based.
Assay [2] deals with T2, Glycine receptor subunit alpha-1 (Homo sapiens, UniProt P23415).
T2 sequence (P23415 whole entry): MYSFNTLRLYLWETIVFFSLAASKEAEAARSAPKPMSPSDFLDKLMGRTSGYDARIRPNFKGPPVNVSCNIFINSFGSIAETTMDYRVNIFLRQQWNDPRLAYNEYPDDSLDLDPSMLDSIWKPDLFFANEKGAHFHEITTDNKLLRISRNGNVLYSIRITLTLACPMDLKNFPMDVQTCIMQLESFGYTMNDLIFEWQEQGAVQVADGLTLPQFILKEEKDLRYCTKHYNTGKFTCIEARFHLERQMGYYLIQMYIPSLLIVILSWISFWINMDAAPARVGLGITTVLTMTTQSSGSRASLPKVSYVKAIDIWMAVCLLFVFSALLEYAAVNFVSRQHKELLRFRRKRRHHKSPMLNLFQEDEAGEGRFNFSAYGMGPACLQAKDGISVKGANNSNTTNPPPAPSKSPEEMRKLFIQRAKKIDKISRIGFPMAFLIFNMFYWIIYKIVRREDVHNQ
Description: Antagonist activity at recombinant human glycine receptor alpha 1 expressed in human tsA201 cells assessed as inhibition of glycine-induced receptor activation after 30 mins by FLIPR membrane potential blue assay. It counts as cell-based.

Another assay is filed under the species Homo sapiens. The assay can be described thus: Selectivity ratio of IC50 for recombinant human glycine receptor alpha 1 beta expressed in human tsA201 cells to IC50 for recombinant human glycine receptor alpha 1 expressed in human tsA201 cells. It counts as cell-based.
The target of assay [3] is T2, Glycine receptor subunit alpha-1. Description: Antagonist activity at recombinant human glycine receptor alpha 1 expressed in HEK293 cells assessed as inhibition of glycine-induced current at -50 mV holding potential by whole cell patch-clamp method. It counts as cell-based.
Assay [4] addresses T1, Glycine receptor (alpha-1/beta). The assay can be described thus: Antagonist activity at recombinant human glycine receptor alpha 1 beta expressed in HEK293 cells assessed as inhibition of glycine-induced current at -50mV holding potential by whole cell patch-clamp method. Type of assay: cell-based.
Assay [5] has as its target T2, Glycine receptor subunit alpha-1. Description: Displacement of [3H]strychnine from recombinant human glycine receptor alpha 1 expressed in HEK293 cell membranes after 30 mins by liquid scintillation counting method. A general note: In a radioligand displacement assay an active substance lowers the binding of a labelled ligand.
For assay [6], the target named is T3, Glycine receptor subunit alpha-1 (Rattus norvegicus, UniProt P07727).
T3 sequence (P07727 whole entry): T2 sequence (P23415 whole entry) with L9F, E27D, E362D, A365G, S396N, P402A, Q457K
Description: Displacement of [3H]strychnine from glycine receptor alpha 1 in rat brain synaptic membranes

T1 sequence (P48167 whole entry, one chain of several): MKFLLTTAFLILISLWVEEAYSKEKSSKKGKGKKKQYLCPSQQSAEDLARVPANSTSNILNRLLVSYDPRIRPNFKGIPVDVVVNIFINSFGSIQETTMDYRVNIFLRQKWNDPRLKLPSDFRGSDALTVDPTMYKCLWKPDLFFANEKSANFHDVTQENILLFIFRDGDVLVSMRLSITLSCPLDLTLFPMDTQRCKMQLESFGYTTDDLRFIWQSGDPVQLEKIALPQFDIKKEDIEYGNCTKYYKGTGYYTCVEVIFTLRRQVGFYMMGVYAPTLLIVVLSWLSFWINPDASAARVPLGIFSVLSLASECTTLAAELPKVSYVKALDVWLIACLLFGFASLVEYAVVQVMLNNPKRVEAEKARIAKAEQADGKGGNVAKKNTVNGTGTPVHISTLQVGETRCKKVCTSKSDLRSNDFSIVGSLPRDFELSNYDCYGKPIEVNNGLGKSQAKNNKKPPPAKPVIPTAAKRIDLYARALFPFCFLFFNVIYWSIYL

Consider `COC(=O)CO/N=C1/C(=O)N2c3ccccc3[C@@]34CCN5CC6=CCO[C@@H]1[C@@H]([C@H]23)[C@H]6C[C@H]54`, for which the IC50 in assay [1] was 670 nM; in assay [2] (read-out: IC50), 220 nM.

As for `COC(=O)CCCCO/N=C1/C(=O)N2c3ccccc3[C@@]34CCN5CC6=CCO[C@@H]1[C@@H]([C@H]23)[C@H]6C[C@H]54`, the IC50 in assay [1] was found to be 1500 nM; in assay [2] (read-out: IC50), 720 nM.

Regarding `CC(C)CO/N=C1/C(=O)N2c3ccccc3[C@@]34CCN5CC6=CCO[C@@H]1[C@@H]([C@H]23)[C@H]6C[C@H]54`, the IC50 in assay [1] is 1100 nM; in assay [2] (read-out: IC50), 260 nM. Moreover, in the assay filed under Homo sapiens, the Ratio IC50 was 3 to 4.

In the case of `O=C1C[C@@H]2OCC=C3CN4CC[C@]56c7ccccc7N1[C@H]5[C@H]2[C@H]3C[C@H]46` [STRYCHNINE], the IC50 in assay [3] came to 51 nM; in assay [4], 58 nM; in assay [1] it was 180 nM; in assay [2] (read-out: IC50) it was 93 nM. Also, the Ki is 23 nM in assay [5] and 12 nM in assay [6].

Regarding `O=C1/C(=N/OCc2ccccc2)[C@@H]2OCC=C3CN4CC[C@]56c7ccccc7N1[C@H]5[C@H]2[C@H]3C[C@H]46`, the IC50 in assay [1] stood at 310 nM; in assay [2] (read-out: IC50) it was 170 nM.

Turning to `CCCCCO/N=C1/C(=O)N2c3ccccc3[C@@]34CCN5CC6=CCO[C@@H]1[C@@H]([C@H]23)[C@H]6C[C@H]54`, the IC50 in assay [1] stood at 710 nM; in assay [2] (read-out: IC50), 250 nM. For the same compound, the Ratio IC50 in the assay listed under Homo sapiens fell in the range of 3 to 4.

On to `C=CCO/N=C1/C(=O)N2c3ccccc3[C@@]34CCN5CC6=CCO[C@@H]1[C@@H]([C@H]23)[C@H]6C[C@H]54`, for which the IC50 in assay [3] stood at 49 nM; in assay [4], 46 nM; in assay [1], 150 nM; in assay [2] (read-out: IC50), 95 nM. In assay [5], the inhibition constant Ki is 370 nM.

`O=C1C[C@@]23c4ccccc4N4C(=O)C[C@@H]5OCC=C6CN1[C@H]2C[C@@H]6[C@@H]5[C@H]43`: the IC50 in assay [1] was 9800 nM; in assay [2] (read-out: IC50), 6900 nM.

As for `CCCO/N=C1/C(=O)N2c3ccccc3[C@@]34CCN5CC6=CCO[C@@H]1[C@@H]([C@H]23)[C@H]6C[C@H]54`, the IC50 turned out to be 109 nM in assay [3], 116 nM in assay [4], 350 nM in assay [1] and 110 nM in assay [2] (read-out: IC50). Besides, the inhibition constant (Ki) in assay [5] is 241 nM. Moreover, the Ratio IC50 in the assay listed under Homo sapiens was in the range of 3 to 4.

Consider `C#CCO/N=C1/C(=O)N2c3ccccc3[C@@]34CCN5CC6=CCO[C@@H]1[C@@H]([C@H]23)[C@H]6C[C@H]54`, for which the IC50 in assay [3] is 59 nM; in assay [4], 43 nM; in assay [1], 240 nM; in assay [2] (read-out: IC50) it was 52 nM.

Take `CCC(=O)Nc1ccc2c(c1)[C@@]13CCN4CC5=CCO[C@H]6CC(=O)N2[C@H]1[C@H]6[C@H]5C[C@H]43`: the IC50 in assay [3] was 201 nM; in assay [4], 311 nM; in assay [1], 940 nM; in assay [2] (read-out: IC50), 540 nM. In addition, in assay [5], the Ki stood at 67 nM.

On to `Nc1ccc2c(c1)[C@@]13CCN4CC5=CCO[C@H]6CC(=O)N2[C@H]1[C@H]6[C@H]5C[C@H]43`, for which the IC50 was determined as 76 nM in assay [3], 97 nM in assay [4], 270 nM in assay [1] and 77 nM in assay [2] (read-out: IC50). The affinity in assay [6] corresponds to a Ki of 18 nM. In the assay listed under Homo sapiens, the Ratio IC50 is 3 to 4.

Take `CO/N=C1/C(=O)N2c3ccccc3[C@@]34CCN5CC6=CCO[C@@H]1[C@@H]([C@H]23)[C@H]6C[C@H]54`: the IC50 in assay [3] worked out at 75 nM; in assay [4], 56 nM; in assay [1] it was 210 nM; in assay [2] (read-out: IC50), 100 nM. The inhibition constant (Ki) in assay [5] came out at 189 nM.

As for `CCCCO/N=C1/C(=O)N2c3ccccc3[C@@]34CCN5CC6=CCO[C@@H]1[C@@H]([C@H]23)[C@H]6C[C@H]54`, the IC50 in assay [1] is 880 nM; in assay [2] (read-out: IC50) it was 370 nM; in assay [2] (read-out: pIC50 (converted)), 380 nM.

`CCC[N+]12CC[C@@]34c5ccccc5N5C(=O)C[C@@H]6OCC=C(C1)[C@H](C[C@@H]32)[C@@H]6[C@H]54` (stereo partly specified): the IC50 was 4590 nM in assay [3], 6530 nM in assay [4], 13000 nM in assay [1] and 10000 nM in assay [2] (read-out: IC50).

As to `O=C1/C(=N/OCCc2ccccc2)[C@@H]2OCC=C3CN4CC[C@]56c7ccccc7N1[C@H]5[C@H]2[C@H]3C[C@H]46`, the figures for the IC50 in assay [1], in assay [2] (read-out: IC50) and in assay [2] (read-out: pIC50 (converted)) were 780 nM, 690 nM and 708 nM, respectively.

What is called Ki is a dissociation constant, usually derived from enzyme kinetics or from competition with a known ligand.
